Reference: US11332463B2, “Spiropiperidine allosteric modulators of nicotinic acetylcholine receptors” (Merck Sharp & Dohme Corp., priority 2018, dated 2022)
Where two headings read alike, the source gives them in different places.

Molecular target: T1, human α7 nicotinic acetylcholine receptor (HEK cell line stably expressing human RIC-3 and human α7) (Homo sapiens, UniProt P36544)
T1 construct: host or cells: HEK cell line (PrecisION hnAChR α7/RIC-3)
Experiment: Automated patch-clamp electrophysiology functional assay (Assay A), IonFlux HT, whole-cell population patch
Type: cell-based
Procedure: The α7 nAChR positive allosteric modulator (PAM) activity of the present compounds may be tested using assays known in the art. […] The assay was performed using the IonFlux HT in a whole-cell, population patch configuration. See Golden et al. Assay Drug Dev. Technol. […] The compounds were assessed for their ability to modulate the function of the human 7 nAChR stably expressed in a HEK cell line both in the presence, and in the absence of the natural 7 agonist acetylcholine. By performing a series of such measurements at different concentrations, the effective concentration of the 7 nAChR PAMs (EC50) was determined. See Spencer et al. Assay Drug Dev. Technol.
Direct activation of α7 (agonism), and potentiation of acetylcholine-evoked 7 currents was determined as follows:
Automated patch-clamp electrophysiology was performed using the IonFlux HT (Fluxion Biosciences Inc., San Francisco, Calif.) in the whole-cell, population patch configuration. Test compounds were assessed for their ability to modulate the function of the α7 nicotinic acetylcholine receptor both in the presence, and in the absence of the natural α7 agonist acetylcholine. […] Immediately prior to assay, cells were detached by first aspirating growth media, rinsing with Dulbecco's phosphate buffered saline, and then adding 10 mL of Accutase (Innovative Cell Technologies, San Diego, Calif.) to the flask and then incubating at 37° C. for 5 minutes. Detached cells were then recovered by the addition of 40 mL of CHO-serum-free media supplemented with 25 mM HEPES, and rocked gently in a 50 mL conical tube for 20 minutes prior to patch-clamp assay. After recovery, cells were pelleted by centrifugation at 1,000 RPM for 1 minute in a compact bench top centrifuge; recovery media was aspirated and cells were resuspended in external recording solution (150 mM NaCl, 5 mM KCl, 2 mM CaCl2), 1 mM MgCl2, 10 mM HEPES, 12 mM dextrose) to a density of 5.0×10^6 cells/mL. The cell suspension was added to the cell inlet wells on an IonFlux HT population patch plate which had previously been rinsed and primed with deionized H2O. Test compounds were serially diluted in DMSO and then resuspended to the final test concentration in external recording solution, with, or without 40 μM acetylcholine added to the external recording solution; test compounds were then transferred to the IonFlux HT population patch plate. Internal recording solution (110 mM TrisPO4, 28 mM TrisBase, 0.1 mM CaCl2, 2 mM MgCl2, 11 mM EGTA, 4 mM MgATP) was added to the internal recording solution inlet wells on the IonFlux HT patch plate previously loaded with cells and test compounds, and the plate loaded into the IonFlux HT instrument. A protocol was executed on the IonFlux HT to trap the cells, break into the cells, and establish the whole-cell recording configuration; cells were voltage-clamped at a holding potential of −60 mV for the duration of the experiment, all experiments were conducted at room temperature, and the IonFlux HT injection pressure was 8 psi for solution applications. Upon establishing the whole-cell configuration, external recording solution was perfused into the recording chambers for 120 seconds and then 40 μM acetylcholine was applied for 1 second and immediately washed off with external recording solution for 60 seconds. The 40 μM acetylcholine-evoked α7 current served as the current response to which subsequent test compound effects, in the presence, or in the absence of 40 μM acetylcholine would be quantified relative to. Next, test compounds were evaluated at multiple concentrations for their ability to induce, or modulate 7 current responses; three concentrations of test compound were evaluated in ascending dose fashion per recording.

[1] = HEK cells expressing human α7/RIC-3, test compound with or without 40 μM acetylcholine, holding potential −60 mV, room temperature, read-out: α7 nAChR Potency
[2] = automated patch-clamp electrophysiology functional assay (Assay A), read-out: α7 nAChR EC50

T1 sequence (P36544 23-502): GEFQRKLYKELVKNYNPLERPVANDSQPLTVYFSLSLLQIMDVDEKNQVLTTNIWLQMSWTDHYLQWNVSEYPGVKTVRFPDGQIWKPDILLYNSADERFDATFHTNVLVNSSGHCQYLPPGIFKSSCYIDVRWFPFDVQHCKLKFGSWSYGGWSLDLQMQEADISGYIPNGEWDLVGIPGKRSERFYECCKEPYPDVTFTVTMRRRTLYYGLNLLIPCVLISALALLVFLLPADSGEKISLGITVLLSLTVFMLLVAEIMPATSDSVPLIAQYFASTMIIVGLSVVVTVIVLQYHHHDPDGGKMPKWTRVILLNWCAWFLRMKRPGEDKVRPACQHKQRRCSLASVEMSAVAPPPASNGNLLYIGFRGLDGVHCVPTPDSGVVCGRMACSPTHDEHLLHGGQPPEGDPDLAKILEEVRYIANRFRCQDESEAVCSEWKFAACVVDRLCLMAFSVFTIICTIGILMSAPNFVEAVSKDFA

EC50 [1] [nM] | EC50 [2] [nM] | SMILES
500 to 5000 | 1100 | NS(=O)(=O)N1CCC2(CC1)CC2c1nc(-c2conc2C2CC2)no1 (stereo not drawn) [Example C4]
< 100 | 11 | Cc1onc(C2CC2)c1-c1noc(C2C(F)(F)C23CCN(S(N)(=O)=O)CC3)n1 (stereo not drawn) [Example C5]
100 to 500 | 420 | NS(=O)(=O)N1CCC2(CC1)C(c1nc(C3CCCCC3)no1)C2(F)F (stereo not drawn) [Example C6]
500 to 5000 | 1100 | Cc1ncccc1-c1noc(C2C(F)(F)C23CCN(S(N)(=O)=O)CC3)n1 (stereo not drawn) [Example C7]
500 to 5000 | 1300 | NS(=O)(=O)N1CCC2(CC1)C(c1nc(-c3ccnc(C(F)(F)F)c3)no1)C2(F)F (stereo not drawn) [Example C8]
100 to 500 | 310 | NS(=O)(=O)N1CCC2(CC1)C(c1nc(-c3ccnc(OC(F)F)c3)no1)C2(F)F (stereo not drawn) [Example C9]
< 100 | 82 | Cc1cnn(C2CC2)c1-c1noc(C2C(F)(F)C23CCN(S(N)(=O)=O)CC3)n1 (stereo not drawn) [Example C10]
500 to 5000 | 2500 | NS(=O)(=O)N1CCC2(CC1)C(c1nc(-c3ccn4ccnc4c3)no1)C2(F)F (stereo not drawn) [Example C11]
100 to 500 | 170 | NS(=O)(=O)N1CCC2(CC1)CC2c1nc(-c2c(C(F)(F)F)noc2C2CC2)no1 (stereo not drawn) [Example C12]
100 to 500 | 150 | NS(=O)(=O)N1CCC2(CC1)C(c1nc(-c3ccnn3C3CC3)no1)C2(F)F (stereo not drawn) [Example C14]
< 100 | – | NS(=O)(=O)N1CCC2(CC1)C(c1nc(-c3c(C4CC4)noc3C(F)(F)F)no1)C2(F)F (stereo not drawn) [Example C15]
< 100 | 37 | NS(=O)(=O)N1CCC2(CC1)C(c1nc(-c3c(C(F)(F)F)noc3C3CC3)no1)C2(F)F (stereo not drawn) [Example C16]
500 to 5000 | 520 | NS(=O)(=O)N1CCC2(CC1)C[C@H]2c1noc(-c2cccc(C(F)(F)F)c2)n1 [Example D1]
5000 to 50000 | 5300 | N#Cc1ccccc1-c1nc([C@@H]2CC23CCN(S(N)(=O)=O)CC3)no1 [Example D3]
100 to 500 | 190 | NS(=O)(=O)N1CCC2(CC1)C[C@H]2c1noc(-c2ccccc2OC(F)F)n1 [Example D4]
100 to 500 | – | NS(=O)(=O)N1CCC2(CC1)C[C@H]2c1noc(-c2cc(Br)ccc2C(F)(F)F)n1 [Example D6]
500 to 5000 | 590 | NS(=O)(=O)N1CCC2(CC1)C[C@H]2c1noc(-c2ccc(Cl)cc2C(F)(F)F)n1 [Example D7]
500 to 5000 | 1300 | NS(=O)(=O)N1CCC2(CC1)C[C@H]2c1noc(-c2ccccc2)n1 [Example D8]
500 to 5000 | 820 | NS(=O)(=O)N1CCC2(CC1)C[C@H]2c1noc(-c2ccc(C(F)(F)F)cc2OC(F)F)n1 [Example D9]
< 100 | 88 | NS(=O)(=O)N1CCC2(CC1)C[C@H]2c1noc(-c2ccc(Cl)cc2OC(F)F)n1 [Example D10]
500 to 5000 | 510 | NS(=O)(=O)N1CCC2(CC1)C[C@H]2c1noc(-c2cccc(OC(F)F)c2)n1 [Example D11]

The next lines start with the compound.

SMILES | EC50 [1] [nM] | EC50 [2] [nM]
CS(=O)(=O)N1CCC2(CC1)C(c1nc(-c3ccc(F)cc3C(F)(F)F)no1)C2(F)F (stereo not drawn) [Example 21, 1,1-Difluoro-2-{3-[4-fluoro-2-(trifluoromethyl)phenyl]-1,2,4-oxadiazol-5-yl}-6-(methylsulfonyl)-6-azaspiro[2.5]octane] | 500 to 5000 | 670
Cc1nn(C)c(-c2nc([C@@H]3C(F)(F)C34CCN(S(N)(=O)=O)CC4)no2)c1C [Example 22, (2R)-1,1-Difluoro-2-[5-(1,3,4-trimethyl-1H-pyrazol-5-yl)-1,2,4-oxadiazol-3-yl]-6-azaspiro[2.5]octane-6-sulfonamide] | < 100 | 99
NS(=O)(=O)N1CCC2(CC1)C[C@H]2c1nc(-c2conc2C2CC2)co1 [Example 23, (1R)-1-[4-(3-Cyclopropylisoxazol-4-yl)-1,3-oxazol-2-yl]-6-azaspiro[2.5]octane-6-sulfonamide] | 500 to 5000 | 1400
NS(=O)(=O)N1CCC2(CC1)[C@H](c1coc(-c3ccc(F)cc3C(F)(F)F)n1)C2(F)F [Example 24, (2R)-1,1-Difluoro-2-{2-[4-fluoro-2-(trifluoromethyl)phenyl]-1,3-oxazol-4-yl}-6-azaspiro[2.5]octane-6-sulfonamide] | < 100 | 90
Cc1cn(C2CC2)nc1-c1nc([C@@H]2C(F)(F)C23CCN(S(N)(=O)=O)CC3)no1 [Example 25, (2R)-2-[5-(1-Cyclopropyl-4-methyl-1H-pyrazol-3-yl)-1,2,4-oxadiazol-3-yl]-1,1-difluoro-6-azaspiro[2.5]octane-6-sulfonamide] | 100 to 500 | 210
CCn1nc(-c2nc([C@@H]3CC34CCN(S(N)(=O)=O)CC4)no2)cc1C [Example 27, (1R)-1-[5-(1-Ethyl-5-methyl-TH-pyrazol-3-yl)-1,2,4-oxadiazol-3-yl]-6-azaspiro[2.5]octane-6-sulfonamide] | 500 to 5000 | 4000
Cc1onc(C2CC2)c1-c1cnc([C@@H]2CC23CCN(S(N)(=O)=O)CC3)o1 [Example 28, (1R)-1-[5-(3-Cyclopropyl-5-methylisoxazol-4-yl)-1,3-oxazol-2-yl]-6-azaspiro[2.5]octane-6-sulfonamide] | 100 to 500 | 120
NS(=O)(=O)N1CCC2(CC1)[C@H](c1noc(-c3cc(C(F)(F)F)nn3C3CC3)n1)C2(F)F [Example 29, (2R)-2-{5-[1-Cyclopropyl-3-(trifluoromethyl)-1H-pyrazol-5-yl]-1,2,4-oxadiazol-3-yl}-1,1-difluoro-6-azaspiro[2.5]octane-6-sulfonamide] | 100 to 500 | 170
Cc1ccc(C2CC2)c(-c2nc([C@@H]3C(F)(F)C34CCN(S(N)(=O)=O)CC4)no2)c1 [Example 30, (2R)-2-[5-(2-Cyclopropyl-5-methylphenyl)-1,2,4-oxadiazol-3-yl]-1,1-difluoro-6-azaspiro[2.5]octane-6-sulfonamide] | < 100 | 2.4
NS(=O)(=O)N1CCC2(CC1)[C@H](c1coc(-c3conc3C3CC3)n1)C2(F)F [Example 31, (2R)-2-[2-(3-Cyclopropylisoxazol-4-yl)-1,3-oxazol-4-yl]-1,1-difluoro-6-azaspiro[2.5]octane-6-sulfonamide] | 100 to 500 | 130
Cc1ccccc1-c1nc([C@@H]2CC23CCN(S(N)(=O)=O)CC3)no1 [Example 33, (1R)-1-[5-(2-Methylphenyl)-1,2,4-oxadiazol-3-yl]-6-azaspiro[2.5]octane-6-sulfonamide] | 100 to 500 | 390
Cc1ccc(C)c(-c2nc([C@@H]3C(F)(F)C34CCN(S(N)(=O)=O)CC4)no2)c1 [Example 34, (2R)-2-[5-(2,5-Dimethylphenyl)-1,2,4-oxadiazol-3-yl]-1,1-difluoro-6-azaspiro[2.5]octane-6-sulfonamide] | < 100 | 4.5
NS(=O)(=O)N1CCC2(CC1)[C@H](c1coc(-c3ccnc(OC(F)F)c3)n1)C2(F)F [Example 35, (2R)-2-{2-[2-(Difluoromethoxy)pyridin-4-yl]-1,3-oxazol-4-yl}-1,1-difluoro-6-azaspiro[2.5]octane-6-sulfonamide] | 100 to 500 | 150
COc1ccc(Cl)cc1-c1noc([C@@H]2CC23CCN(S(N)(=O)=O)CC3)n1 [Example A1] | 100 to 500 | 490
NS(=O)(=O)N1CCC2(CC1)C(c1nc(-c3ccccc3)no1)C2(F)F (stereo not drawn) [Example A2] | 100 to 500 | 320
NS(=O)(=O)N1CCC2(CC1)C[C@H]2c1nc(-c2cc(F)ccc2C(F)(F)F)no1 [Example A4] | 500 to 5000 | 850
